The target of assay [1] is T1, His-BIR2-3 (125-356, C202A/C213G, XIAP) (Homo sapiens, UniProt P98170, C202A/C213G).
T1 construct: additions of His-BIR2-3 (125-356, C202A/C213G, XIAP), fluorescein labeled dimeric SMAC peptide
Put plainly: XIAP-BIR2-3 Dimeric SMAC Peptide Homogeneous Time Resolved Fluorescence (HTRF) Assay. In kind it is binding. The following applies: fluorescein labeled dimeric SMAC peptide.

The target in assay [2] is T2, His-BIR3 (241-356, XIAP) (Homo sapiens, UniProt P98170).
T2 construct: additions of His-BIR3 (241-356, XIAP), fluorescein labeled SMAC peptide
Put plainly: XIAP-BIR3/SMAC Homogeneous Time Resolved Fluorescence (HTRF) Assay. The class given is binding. The following applies: fluorescein labeled SMAC peptide.

T2 sequence (P98170 241-356): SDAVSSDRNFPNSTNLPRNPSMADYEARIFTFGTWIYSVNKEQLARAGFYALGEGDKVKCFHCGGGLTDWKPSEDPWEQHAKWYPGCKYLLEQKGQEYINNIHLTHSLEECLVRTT
T1 sequence (P98170 125-356 C202A/C213G): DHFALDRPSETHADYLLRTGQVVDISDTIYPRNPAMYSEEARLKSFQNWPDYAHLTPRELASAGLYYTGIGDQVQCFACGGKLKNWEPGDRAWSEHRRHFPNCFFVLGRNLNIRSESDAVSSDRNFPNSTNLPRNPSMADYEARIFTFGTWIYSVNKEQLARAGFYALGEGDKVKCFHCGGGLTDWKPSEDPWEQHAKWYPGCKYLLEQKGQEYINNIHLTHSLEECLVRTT

On to `CNC(C)C(=O)NC(C(=O)N1CC2CC1C(=O)NC(Cc1ccc3ccccc3c1)C(=O)NC(C(=O)O)Cc1ccc(cc1)OCCCCC1CC(C(=O)NC(Cc3ccc4ccccc4c3)C(=O)NC(C(=O)NS(=O)(=O)C(C)C)Cc3ccc(cc3)OCc3cn2nn3)N(C(=O)C(NC(=O)C(C)NC)C(C)(C)C)C1)C(C)(C)C` (stereo not shown) [Example 10], for which the IC50 in assay [1] was determined as 3.1 nM; in assay [2], 6.6 nM.
For `CN[C@@H](C)C(=O)N[C@H](C(=O)N1C[C@H]2C/C=C/COc3ccc(cc3)C[C@@H](C(=O)NS(=O)(=O)C3CC3)NC(=O)[C@H](Cc3ccc4ccccc4c3)NC(=O)[C@@H]3C[C@H](C/C=C/COc4ccc(cc4)C[C@@H](C(=O)O)NC(=O)[C@H](Cc4ccc5ccccc5c4)NC(=O)[C@@H]1C2)CN3C(=O)[C@@H](NC(=O)[C@H](C)NC)C(C)(C)C)C(C)(C)C` [Example 88], in that order: 1.7 nM and 3.9 nM.
The like results for `CN[C@@H](C)C(=O)N[C@H](C(=O)N1C[C@@H]2C[C@H]1C(=O)N[C@@H](Cc1ccc3ccccc3c1)C(=O)N[C@H](C(=O)O)Cc1ccc(cc1)OC/C=C/CO[C@H]1C[C@@H](C(=O)N[C@@H](Cc3ccc(-c4ccccc4)cc3)C(=O)N[C@H](C(=O)O)Cc3ccc(cc3)C(=O)N2)N(C(=O)[C@@H](NC(=O)[C@H](C)NC)C(C)(C)C)C1)C(C)(C)C` [Example 48] were, in that order, 2.6 nM and 17.6 nM.
With `CN[C@@H](C)C(=O)N[C@H](C(=O)N1C[C@@H]2C[C@H]1C(=O)N[C@@H](Cc1ccc3ccccc3c1)C(=O)N[C@H](C(=O)O)Cc1ccc(cc1)OCc1cn(nn1)[C@H]1C[C@@H](C(=O)N[C@@H](Cc3ccc4ccccc4c3)C(=O)N[C@H](C(=O)O)Cc3ccc(cc3)OCCCCO2)N(C(=O)[C@@H](NC(=O)[C@H](C)NC)C(C)(C)C)C1)C(C)(C)C` [Example 121], the IC50 was determined as 7.9 nM in assay [1] and 11.6 nM in assay [2].
Turning to `CN[C@@H](C)C(=O)N[C@H](C(=O)N[C@H]1C/C=C/COc2ccc(cc2)C[C@H](C(=O)O)NC(=O)[C@H](Cc2ccc3ccccc3c2)NC(=O)[C@@H]2[C@@H](CCN2C(=O)[C@@H](NC(=O)[C@H](C)NC)C(C)(C)C)OCc2cn(nn2)CC[C@@H](C(=O)OC)NC(=O)[C@H](Cc2ccc3ccccc3c2)NC1=O)C(C)(C)C` [Example 21], the IC50 amounted to 2.6 nM in assay [1] and 1.8 nM in assay [2].
Turning to `CN[C@@H](C)C(=O)N[C@H](C(=O)N1C[C@@H]2C[C@H]1C(=O)N[C@@H](Cc1ccc3ccccc3c1)C(=O)N[C@H](C(=O)O)CCC(=O)N[C@H]1C[C@@H](C(=O)N[C@@H](Cc3ccc4ccccc4c3)C(=O)N[C@H](C(=O)O)Cc3ccc(cc3)OC/C=C/CO2)N(C(=O)[C@@H](NC(=O)[C@H](C)NC)C(C)(C)C)C1)C(C)C` [Example 56], the IC50 in assay [1] is 5.9 nM; in assay [2] it was 57.9 nM.
With `CN[C@@H](C)C(=O)NC(C(=O)N1C[C@H]2C/C=C/COc3ccc(cc3)C[C@@H](c3n[nH]c(=O)o3)NC(=O)C(Cc3ccc4ccccc4c3)NC(=O)[C@@H]3C[C@@H](CN3C(=O)[C@@H](NC(=O)[C@H](C)NC)C(C)(C)C)n3cc(nn3)COc3ccc(cc3)C[C@@H](C(=O)O)NC(=O)[C@H](Cc3ccc4ccccc4c3)NC(=O)[C@@H]1C2)C(C)(C)C` (stereo partly shown) [Example 91], the IC50 in assay [1] is 0.4 nM; in assay [2], 2 nM.
For `CN[C@@H](C)C(=O)N[C@H](C(=O)N1C[C@H]2C/C=C/COc3ccc(cc3)C[C@@H](C(=O)NS(=O)(=O)C3CCCCC3)NC(=O)[C@H](Cc3ccc4ccccc4c3)NC(=O)[C@@H]3C[C@@H](CN3C(=O)[C@@H](NC(=O)[C@H](C)NC)C(C)(C)C)n3cc(nn3)COc3ccc(cc3)C[C@@H](C(=O)O)NC(=O)[C@H](Cc3ccc4ccccc4c3)NC(=O)[C@@H]1C2)C(C)(C)C` [Example 24], in that order: 0.2 nM and 0.7 nM.
With `CN[C@@H](C)C(=O)N[C@H](C(=O)N1CC[C@H]2OCc3cn(nn3)-c3ccc(cc3)C[C@@H](C(=O)O)NC(=O)[C@H](Cc3ccc4ccccc4c3)NC(=O)[C@@H]3C[C@@H](CN3C(=O)[C@@H](NC(=O)[C@H](C)NC)C(C)(C)C)OC/C=C/COc3ccc(cc3)C[C@@H](C(=O)O)NC(=O)[C@H](Cc3ccc4ccccc4c3)NC(=O)[C@H]21)C(C)(C)C` [Example 12], the IC50 in assay [1] and in assay [2] was 1.2 nM throughout.
Regarding `CN[C@@H](C)C(=O)N[C@H](C(=O)N1C[C@@H]2C[C@H]1C(=O)N[C@@H](Cc1ccc3ccccc3c1)C(=O)N[C@H](C(=O)NS(=O)(=O)C1CC1)Cc1ccc(cc1)OCc1cn(nn1)[C@H]1C[C@@H](C(=O)N[C@@H](Cc3ccc4ccccc4c3)C(=O)N[C@H](C(=O)O)Cc3ccc(cc3)OC/C=C/CO2)N(C(=O)[C@@H](NC(=O)[C@H](C)NC)C(C)(C)C)C1)C1CCOCC1` [Example 109], the IC50 in assay [1] worked out at 4.4 nM; in assay [2] it was 44.3 nM.
Turning to `CN[C@@H](C)C(=O)N[C@H](C(=O)N1C[C@@H]2C[C@H]1C(=O)N[C@@H](Cc1ccc3ccccc3c1)C(=O)N[C@H](C(=O)O)Cc1ccc(cc1)OCCCC[C@H]1C[C@@H](C(=O)N[C@@H](Cc3ccc4ccccc4c3)C(=O)N[C@H](C(=O)NS(=O)(=O)C3CC3)Cc3ccc(cc3)OCc3cn2nn3)N(C(=O)[C@@H](NC(=O)[C@H](C)NC)C(C)(C)C)C1)C(C)(C)C` [Example 87], the IC50 stood at 1.3 nM in assay [1] and 2.4 nM in assay [2].
As to `CN[C@@H](C)C(=O)N[C@H](C(=O)N1C[C@@H]2C[C@H]1C(=O)N[C@@H](Cc1ccc3ccccc3c1)C(=O)N[C@H](C(=O)O)Cc1ccc(cc1)OCCCCO[C@H]1C[C@@H](C(=O)N[C@@H](Cc3ccc4ccccc4c3)C(=O)N[C@H](C(=O)NS(=O)(=O)C3CC3)Cc3ccc(cc3)OCc3cn2nn3)N(C(=O)[C@@H](NC(=O)[C@H](C)NC)C(C)(C)C)C1)C(C)(C)C` [Example 120], the IC50 in assay [1] was 8 nM; in assay [2] it was 42 nM.
For `CN[C@@H](C)C(=O)N[C@H](C(=O)N[C@H]1C/C=C/CC[C@@H](C(=O)O)NC(=O)[C@H](Cc2ccccc2)NC(=O)[C@@H]2CN(CCNC(=O)CC[C@@H](C(=O)O)NC(=O)[C@H](Cc3ccccc3)NC1=O)CCN2C(=O)[C@@H](NC(=O)[C@H](C)NC)C(C)C)C(C)C` [Example 81], in that order: 1.1 nM and 26 nM.
For `CN[C@@H](C)C(=O)N[C@H](C(=O)N1C[C@@H]2C[C@H]1C(=O)NC(Cc1ccc3ccccc3c1)C(=O)N[C@H](c1nnn[nH]1)Cc1ccc(cc1)OC/C=C/C[C@H]1C[C@@H](C(=O)N[C@@H](Cc3ccc4ccccc4c3)C(=O)N[C@H](C(=O)O)Cc3ccc(cc3)OCc3cn2nn3)N(C(=O)[C@@H](NC(=O)[C@H](C)NC)C(C)(C)C)C1)C(C)(C)C` (stereo partly shown) [Example 93], in that order: 0.4 nM and 0.8 nM.
The like results for `CCCCCCCCCCCCS(=O)(=O)NC(=O)[C@@H]1Cc2ccc(cc2)OC/C=C/C[C@H]2C[C@@H](C(=O)N[C@@H](Cc3ccc4ccccc4c3)C(=O)N[C@H](C(=O)O)Cc3ccc(cc3)OCc3cn(nn3)[C@H]3C[C@@H](C(=O)N[C@@H](Cc4ccc5ccccc5c4)C(=O)N1)N(C(=O)[C@@H](NC(=O)[C@H](C)NC)C(C)(C)C)C3)N(C(=O)[C@@H](NC(=O)[C@H](C)NC)C(C)(C)C)C2` [Example 23] were, in that order, 6.9 nM and 34.2 nM.
For the molecule `CN[C@@H](C)C(=O)N[C@H](C(=O)N1C[C@@H]2C[C@H]1C(=O)N[C@@H](Cc1ccc3ccccc3c1)C(=O)N[C@H](C(=O)O)Cc1ccc(cc1)OC/C=C/CO[C@H]1C[C@@H](C(=O)N[C@@H](C(c3ccccc3)c3ccccc3)C(=O)N[C@H](C(=O)NS(=O)(=O)C3CC3)Cc3ccc(cc3)OCc3cn2nn3)N(C(=O)[C@@H](NC(=O)[C@H](C)NC)C(C)(C)C)C1)C(C)(C)C` [Example 104], the IC50 stood at 8.7 nM in assay [1] and 105 nM in assay [2].
`CN[C@@H](C)C(=O)N[C@H](C(=O)N[C@H]1C/C=C/CC[C@@H](C(=O)O)NC(=O)[C@H](Cc2ccc3ccccc3c2)NC(=O)[C@@H]2[C@@H](CCN2C(=O)[C@@H](NC(=O)[C@H](C)NC)C(C)(C)C)OCc2cn(nn2)CC[C@@H](C(=O)OC)NC(=O)[C@H](Cc2ccc3ccccc3c2)NC1=O)C(C)(C)C` [Example 20]: the results for the concentration for half-maximal inhibition (IC50) in assay [1] and in assay [2] were 7.3 nM and 4.8 nM, respectively.
Turning to `CN[C@@H](C)C(=O)N[C@H](C(=O)N1C[C@H]2C/C=C/COc3ccc(cc3)C[C@@H](C(=O)O)NC(=O)[C@H](Cc3ccc4ccccc4c3)NC(=O)[C@@H]3C[C@@H](CN3C(=O)[C@@H](NC(=O)[C@H](C)NC)C(C)(C)C)NC(=O)c3ccc(cc3)C[C@@H](C(=O)O)NC(=O)C(Cc3ccc4ccccc4c3)NC(=O)[C@@H]1C2)C(C)(C)C` (stereo partly shown) [Example 28], the IC50 in assay [1] worked out at 1.1 nM; in assay [2] it was 3.5 nM.
The like results for `CN[C@@H](C)C(=O)N[C@H](C(=O)N1C[C@@H]2C[C@H]1C(=O)N[C@@H](Cc1ccc3ccccc3c1)C(=O)N[C@H](C(=O)O)Cc1ccc(cc1)OC/C=C/CO[C@H]1C[C@@H](C(=O)N[C@@H](Cc3ccc4ccccc4c3)C(=O)N[C@H](C(=O)NS(=O)(=O)C3CC3)Cc3ccc(cc3)OCc3cn2nn3)N(C(=O)[C@H](NC(=O)[C@H](C)NC)[C@@H](C)O)C1)C(C)(C)C` [Example 111] were, in that order, 2.6 nM and 34.1 nM.
For `CC[C@H](NC(=O)[C@H](C)NC)C(=O)N1C[C@@H]2C[C@H]1C(=O)N[C@@H](Cc1c[nH]c3ccccc13)C(=O)N[C@H](C(=O)O)Cc1ccc(cc1)C(=O)N[C@H]1C[C@@H](C(=O)N[C@@H](Cc3ccc4ccccc4c3)C(=O)N[C@H](C(=O)O)Cc3ccc(cc3)OC/C=C/CO2)N(C(=O)[C@@H](NC(=O)[C@H](C)NC)C(C)(C)C)C1` [Example 47], the IC50 was 6.3 nM in assay [1] and 41.8 nM in assay [2].

The values above are taken from patent US20140135270A1, “MACROCYCLIC COMPOUNDS FOR INHIBITION OF INHIBITORS OF APOPTOSIS” (Ensemble Therapeutics Corp., priority 2012, published 2014).
